Laboratory results: patent publication US10039759B2, “Quinolines as FGFR kinase modulators” (priority 2011, dated 2018)
Read-outs that look alike come from different tables or passages of the source.

How the values were obtained:
[1] = test system: Ba/F3-FGFR3-transfected cells; assay: Ba/F3-FGFR3 (minus IL3 or plus IL3) cellular proliferation assay, Alamar Blue; format: cell-based; details: plus IL3 (10 ng/ml murine IL3, counterscreen), 24 hours, Alamar Blue; for IC50: read-out: BAF3-FGFR3 (PLUS IL3 Alamar Blue pIC50) (converted)
Summary of the method: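 Ba/F3-FGFR3 cells (20000 per well) in phenol red-free RPMI-1640 with 10% FBS were exposed to compound (10 μM to 0.1 nM) for 24 h at 37° C. Alamar Blue was then added for 4 h and fluorescence read (ex 540, em 590 nm) to give IC50/pIC50; the counterscreen was run with 10 ng/ml murine IL3.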

[2] = test system: Ba/F3-KDR-transfected cells; assay: Ba/F3-KDR (minus IL3 or plus IL3) cellular proliferation assay, Alamar Blue; format: cell-based; details: plus IL3 (10 ng/ml murine IL3, counterscreen), 24 hours, Alamar Blue; for IC50: read-out: BAF3-KDR (PLUS IL3 Alamar Blue pIC50) (converted)
Summary of the method: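 Ba/F3-KDR cells, 20000 per well, exposed to compounds (10 μM to 0.1 nM) for 24 h at 37°C in RPMI/10% FBS, then Alamar Blue for 4 h; fluorescence ex 540/em 590 nm gives IC50 and pIC50. Counterscreen run with 10 ng/ml murine IL3.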

FGFR4 (h) = FGFR4 (h) (Homo sapiens, UniProt P22455); assay: FGFR4 (enzymatic assay), TR-FRET; format: biochemical; details: FGFR 4 pIC50, 5 μM ATP, 60 min; pIC50 = -log IC50 (M); average if tested multiple times
FGFR2 (h) = FGFR2 (h) (Homo sapiens, UniProt P21802); assay: FGFR2 (enzymatic assay), TR-FRET; format: biochemical; details: 60 min, pIC50 = -log IC50 (M), average if tested multiple times
KDR (h) = KDR (h) (Homo sapiens, UniProt P35968); assay: KDR (VEGFR2) (enzymatic assay), TR-FRET; format: biochemical; details: 120 min, pIC50 = -log IC50 (M), average if tested multiple times
Method: KDR (VEGFR2) (Enzymatic Assay)
In a final reaction volume of 30 μL, KDR (h) (150 ng/ml) was incubated with 50 mM HEPES pH 7.5, 6 mM MnCl2, 1 mM DTT, 0.1 mM Na3VO4, 0.01% Triton-X-100, 500 nM Btn-Flt3 and 3 μM ATP in the presence of compound (1% DMSO final). After incubation for 120 minutes at room temperature the reaction was stopped with 2.27 nM EU-anti P-Tyr, 7 mM EDTA, 31.25 nM SA-XL-665 and 0.02% BSA which was present for 60 minutes at room temperature. Time-Resolved Fluorescence Resonance Energy Transfer (TR-FRET) signal (ex340 nm. Em 620 nm, em 655 nm) was measured afterwards and results are expressed in RFU (Relative Fluorescence Units). In this assay, the inhibitory effect of different compound concentrations (range 10 μM to 0.1 nM) was determined and used to calculate an IC50 (M) and pIC50 (−log IC50) value.

[3] = target: T1, Ba/F3-FGFR1-transfected cells (Homo sapiens, UniProt P11362, cells depend on it, form not given); assay: Ba/F3-FGFR1 (minus IL3 or plus IL3) cellular proliferation assay, Alamar Blue; format: cell-based; details: minus IL3, 24 hours
T1 construct: other: minus IL3; 24 hours, Alamar Blue
Method: Ba/F3-FGFR1 (Minus IL3 or Plus IL3) (Cellular Proliferation Assay)
In a 384 well plate, 100 nl of compound dilution in DMSO was sprayed before adding 50 μl cell culture medium (phenol red free RPMI-1640, 10% FBS, 2 mM L-Glutamine and 50 μg/ml Gentamycin) containing 20000 cells per well of Ba/F3-FGFR1-transfected cells. Cells were put in an incubator at 37° C. and 5% CO2. After 24 hours, 10 μl of Alamar Blue solution (0.5 mM K3Fe(CN)6, 0.5 mM K4Fe(CN)6, 0.15 mM Resazurin and 100 mM Phosphate Buffer) was added to the wells, incubated for 4 hours at 37° C. and 5% CO2 before RFU's (Relative Fluorescence Units) (ex. 540 nm., em. 590 nm.) were measured in a fluorescence plate reader.
In this assay, the inhibitory effect of different compound concentrations (range 10 μM to 0.1 nM) was determined and used to calculate an IC50 (M) and pIC50 (−log IC50) value. As a counterscreen the same experiment was performed in the presence of 10 ng/ml murine IL3.

FGFR3 (h) = FGFR3 (h) (Homo sapiens, UniProt P22607); assay: FGFR3 (enzymatic assay), TR-FRET; format: biochemical; details: 60 min, pIC50 = -log IC50 (M), average if tested multiple times
FGFR1 (h) = FGFR1 (h) (Homo sapiens, UniProt P11362); assay: FGFR1 (enzymatic assay), TR-FRET; format: biochemical; details: FGFR 1 pIC50, 5 μM ATP, 60 min; pIC50 = -log IC50 (M); average if tested multiple times
[4] = 0.4 μM ATP, read-out: FGFR 2 pIC50 (converted)
[5] = 3 μM ATP, read-out: VEGFR KDR pIC50 (converted)
[6] = 25 μM ATP, read-out: hFGFR 3 pIC50 (converted)

Chain of KDR (h) (P35968 20-1356): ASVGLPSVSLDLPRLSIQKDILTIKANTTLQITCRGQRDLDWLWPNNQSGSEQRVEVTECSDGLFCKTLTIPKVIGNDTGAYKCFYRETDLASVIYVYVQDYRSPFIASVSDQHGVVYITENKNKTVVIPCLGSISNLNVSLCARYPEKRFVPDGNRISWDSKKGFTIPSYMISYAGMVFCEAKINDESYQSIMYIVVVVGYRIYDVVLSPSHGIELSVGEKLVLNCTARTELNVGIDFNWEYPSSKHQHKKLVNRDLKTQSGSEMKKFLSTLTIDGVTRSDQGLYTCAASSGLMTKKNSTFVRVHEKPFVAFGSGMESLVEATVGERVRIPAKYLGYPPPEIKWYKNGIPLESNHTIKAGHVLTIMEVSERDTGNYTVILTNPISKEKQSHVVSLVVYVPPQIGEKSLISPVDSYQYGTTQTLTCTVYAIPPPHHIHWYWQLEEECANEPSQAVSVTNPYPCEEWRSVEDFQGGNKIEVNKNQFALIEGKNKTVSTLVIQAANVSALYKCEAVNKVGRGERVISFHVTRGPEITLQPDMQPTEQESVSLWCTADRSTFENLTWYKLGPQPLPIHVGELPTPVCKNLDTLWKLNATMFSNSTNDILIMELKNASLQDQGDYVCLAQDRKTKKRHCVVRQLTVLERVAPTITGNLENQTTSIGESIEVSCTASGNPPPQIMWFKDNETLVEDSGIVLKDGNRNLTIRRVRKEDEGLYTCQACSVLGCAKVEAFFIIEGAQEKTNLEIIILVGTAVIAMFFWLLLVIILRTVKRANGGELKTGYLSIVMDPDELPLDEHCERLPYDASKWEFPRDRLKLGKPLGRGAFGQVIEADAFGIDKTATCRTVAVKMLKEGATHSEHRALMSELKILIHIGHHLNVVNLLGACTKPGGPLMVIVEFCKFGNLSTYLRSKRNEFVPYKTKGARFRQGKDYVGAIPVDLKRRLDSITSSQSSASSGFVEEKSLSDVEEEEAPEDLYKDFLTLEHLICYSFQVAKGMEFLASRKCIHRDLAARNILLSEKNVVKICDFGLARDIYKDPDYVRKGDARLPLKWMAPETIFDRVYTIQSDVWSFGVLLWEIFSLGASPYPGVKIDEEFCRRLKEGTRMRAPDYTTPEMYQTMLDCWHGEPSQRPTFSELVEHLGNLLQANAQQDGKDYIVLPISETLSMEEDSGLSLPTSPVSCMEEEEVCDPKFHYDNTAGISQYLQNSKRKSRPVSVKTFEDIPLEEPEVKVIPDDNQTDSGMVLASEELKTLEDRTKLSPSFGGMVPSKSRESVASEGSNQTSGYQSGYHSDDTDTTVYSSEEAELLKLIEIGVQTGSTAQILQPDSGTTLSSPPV
Chain of FGFR1 (h) (P11362 22-822): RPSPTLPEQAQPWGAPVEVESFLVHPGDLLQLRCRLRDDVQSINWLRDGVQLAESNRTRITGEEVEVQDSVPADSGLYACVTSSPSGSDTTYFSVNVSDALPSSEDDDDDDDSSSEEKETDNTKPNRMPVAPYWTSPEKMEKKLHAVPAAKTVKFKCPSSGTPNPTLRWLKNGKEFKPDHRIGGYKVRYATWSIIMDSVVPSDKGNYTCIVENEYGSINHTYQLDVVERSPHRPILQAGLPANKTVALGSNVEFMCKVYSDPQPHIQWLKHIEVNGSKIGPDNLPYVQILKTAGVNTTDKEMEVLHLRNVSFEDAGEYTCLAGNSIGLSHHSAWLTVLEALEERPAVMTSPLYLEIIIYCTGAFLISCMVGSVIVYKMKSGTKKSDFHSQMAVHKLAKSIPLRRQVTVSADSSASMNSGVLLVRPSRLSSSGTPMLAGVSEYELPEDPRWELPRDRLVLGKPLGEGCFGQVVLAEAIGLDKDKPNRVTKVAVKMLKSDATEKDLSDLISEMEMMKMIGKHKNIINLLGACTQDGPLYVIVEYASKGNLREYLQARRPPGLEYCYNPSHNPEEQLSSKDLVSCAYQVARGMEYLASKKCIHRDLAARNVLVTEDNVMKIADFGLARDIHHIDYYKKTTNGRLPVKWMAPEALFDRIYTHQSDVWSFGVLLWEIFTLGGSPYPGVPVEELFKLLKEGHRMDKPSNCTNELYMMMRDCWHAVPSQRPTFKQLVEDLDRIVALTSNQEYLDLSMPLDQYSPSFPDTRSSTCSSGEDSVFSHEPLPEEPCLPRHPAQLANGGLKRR
Chain of FGFR3 (h) (P22607 23-806): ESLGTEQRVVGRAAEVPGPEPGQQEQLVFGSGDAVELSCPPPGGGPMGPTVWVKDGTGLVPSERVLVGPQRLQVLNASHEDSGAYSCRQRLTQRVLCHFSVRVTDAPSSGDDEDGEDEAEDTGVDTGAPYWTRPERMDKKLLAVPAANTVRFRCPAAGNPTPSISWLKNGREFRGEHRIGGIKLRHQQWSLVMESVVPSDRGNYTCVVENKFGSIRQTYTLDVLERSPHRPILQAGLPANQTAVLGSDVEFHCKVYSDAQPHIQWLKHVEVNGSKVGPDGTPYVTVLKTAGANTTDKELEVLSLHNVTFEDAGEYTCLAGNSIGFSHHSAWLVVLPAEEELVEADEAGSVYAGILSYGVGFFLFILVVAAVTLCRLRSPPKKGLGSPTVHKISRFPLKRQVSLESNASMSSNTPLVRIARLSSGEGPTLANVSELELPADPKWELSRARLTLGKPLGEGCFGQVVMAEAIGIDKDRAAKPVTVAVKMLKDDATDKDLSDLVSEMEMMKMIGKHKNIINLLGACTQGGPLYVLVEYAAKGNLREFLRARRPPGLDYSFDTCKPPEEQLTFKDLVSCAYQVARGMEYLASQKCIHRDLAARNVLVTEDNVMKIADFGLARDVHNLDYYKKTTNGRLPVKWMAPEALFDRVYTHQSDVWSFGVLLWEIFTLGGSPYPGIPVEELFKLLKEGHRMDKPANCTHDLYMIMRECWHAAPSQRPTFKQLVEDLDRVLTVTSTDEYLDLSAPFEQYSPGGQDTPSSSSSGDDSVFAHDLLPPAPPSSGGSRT
Chain of FGFR2 (h) (P21802 22-821): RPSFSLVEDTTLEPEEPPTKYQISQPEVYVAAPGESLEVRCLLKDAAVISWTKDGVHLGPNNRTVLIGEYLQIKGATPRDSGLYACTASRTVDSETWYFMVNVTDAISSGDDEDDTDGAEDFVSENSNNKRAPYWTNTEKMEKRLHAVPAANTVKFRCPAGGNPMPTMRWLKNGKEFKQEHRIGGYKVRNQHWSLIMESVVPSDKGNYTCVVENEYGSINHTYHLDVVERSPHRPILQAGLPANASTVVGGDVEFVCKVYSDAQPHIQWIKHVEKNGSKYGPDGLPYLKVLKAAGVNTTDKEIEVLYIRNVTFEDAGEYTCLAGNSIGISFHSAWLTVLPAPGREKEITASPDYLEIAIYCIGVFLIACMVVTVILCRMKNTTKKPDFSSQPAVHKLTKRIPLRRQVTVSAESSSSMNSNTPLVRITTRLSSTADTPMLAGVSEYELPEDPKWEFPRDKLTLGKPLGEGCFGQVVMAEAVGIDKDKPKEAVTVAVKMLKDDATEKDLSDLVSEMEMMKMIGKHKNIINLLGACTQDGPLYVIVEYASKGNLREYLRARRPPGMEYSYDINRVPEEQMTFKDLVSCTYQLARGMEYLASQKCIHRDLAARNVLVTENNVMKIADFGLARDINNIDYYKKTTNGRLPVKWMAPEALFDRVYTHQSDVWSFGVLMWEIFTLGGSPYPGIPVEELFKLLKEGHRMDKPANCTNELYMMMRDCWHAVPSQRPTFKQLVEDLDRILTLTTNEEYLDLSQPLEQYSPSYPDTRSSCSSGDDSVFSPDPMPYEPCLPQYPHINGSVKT
T1 sequence (P11362 whole entry, change not shown): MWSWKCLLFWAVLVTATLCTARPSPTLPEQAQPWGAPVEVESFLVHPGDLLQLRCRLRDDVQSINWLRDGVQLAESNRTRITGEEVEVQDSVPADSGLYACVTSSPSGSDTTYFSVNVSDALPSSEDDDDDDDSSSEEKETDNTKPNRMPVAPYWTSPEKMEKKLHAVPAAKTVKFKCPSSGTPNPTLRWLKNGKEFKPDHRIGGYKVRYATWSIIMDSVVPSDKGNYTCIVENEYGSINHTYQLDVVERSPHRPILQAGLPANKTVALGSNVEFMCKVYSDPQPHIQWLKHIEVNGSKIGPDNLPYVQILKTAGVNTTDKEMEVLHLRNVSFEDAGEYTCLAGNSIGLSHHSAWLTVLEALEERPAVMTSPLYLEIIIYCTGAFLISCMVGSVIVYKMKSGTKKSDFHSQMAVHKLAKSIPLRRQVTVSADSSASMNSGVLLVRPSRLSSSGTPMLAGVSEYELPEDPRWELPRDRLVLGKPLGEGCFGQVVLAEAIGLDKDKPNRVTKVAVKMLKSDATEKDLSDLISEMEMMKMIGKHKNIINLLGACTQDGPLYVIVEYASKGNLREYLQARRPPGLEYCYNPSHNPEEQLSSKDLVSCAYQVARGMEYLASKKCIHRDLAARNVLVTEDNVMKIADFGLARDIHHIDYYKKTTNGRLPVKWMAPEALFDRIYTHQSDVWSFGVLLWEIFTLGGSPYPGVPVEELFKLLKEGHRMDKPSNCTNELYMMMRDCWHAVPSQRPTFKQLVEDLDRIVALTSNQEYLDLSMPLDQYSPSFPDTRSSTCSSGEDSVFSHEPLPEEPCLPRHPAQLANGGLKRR

| SMILES | IC50 (FGFR4 (h)) | IC50 (FGFR2 (h); [4]) | IC50 (KDR (h); [5]) | BAF3-FGFR1 (MIN IL3 pIC50) [3] | IC50 (FGFR3 (h); [6]) | IC50 (FGFR1 (h)) | IC50 (FGFR2 (h); FGFR 2 pIC50, 0.4 μM ATP) | IC50 [1] | IC50 [2] | BAF3-FGFR3 (PLUS IL3 Alamar Blue pIC50) [1] | BAF3-KDR (PLUS IL3 Alamar Blue pIC50) [2] | IC50 (FGFR3 (h); hFGFR 3 pIC50, 25 μM ATP) | IC50 (KDR (h); VEGFR KDR pIC50, 3 μM ATP) |
| --- | --- | --- | --- | --- | --- | --- | --- | --- | --- | --- | --- | --- | --- |
| COc1cc(OC)cc(N(CC(O)C(F)(F)F)c2ccc3ncc(-c4cnn(C)c4)cc3c2)c1 (single isomer, unassigned) [Compound 24] | 7.94e-09 M | 4.9e-09 M | 2.88e-07 M | 7.73 | ~1.1e-09 M |  |  | > 10000 nM | > 10000 nM |  |  |  |  |
| COc1cc(OC)cc(N(CCNC(C)C)c2ccc3ncc(-c4cnn(C)c4)cc3c2)c1 [Compound 1] | 1.38e-08 M | 4.95e-09 M | 7.41e-08 M | 7.4 | 7.94e-09 M |  |  |  |  |  |  |  |  |
| COc1cc(OC)c(F)c(N(CCNC(C)C)c2ccc3ncc(-c4cnn(C)c4)cc3c2)c1 [Compound 2] | 3.98e-09 M | 3.24e-09 M | 2.57e-08 M | 8.3 |  | 1.32e-09 M |  |  |  |  |  | 3.89e-09 M |  |
| COc1cc(OC)cc(N(CCCO)c2ccc3ncc(-c4cnn(C)c4)cc3c2)c1 [Compound 4] | 3.09e-08 M | 1.35e-08 M | 1.38e-07 M | 6.26 | 5.89e-09 M | 1.91e-08 M |  | > 10000 nM | > 10000 nM |  |  |  |  |
| COc1cc(OC)cc(N(CCCNCC(F)(F)F)c2ccc3ncc(-c4cnn(C)c4)cc3c2)c1 [Compound 5] | 9.12e-08 M | 3.16e-08 M | 2.45e-07 M | 5.79 | 2.29e-08 M |  |  |  |  |  |  |  |  |
| C#CCN(c1cc(OC)cc(OC)c1)c1ccc2ncc(-c3cnn(C)c3)cc2c1 [Compound 6] | 1.51e-07 M | 3.02e-08 M | 4.27e-07 M | 5.7 | 1.35e-08 M | 1.51e-08 M |  | > 10000 nM | > 10000 nM |  |  |  |  |
| COc1cc(OC)cc(N(CCCN2CCCC2=O)c2ccc3ncc(-c4cnn(C)c4)cc3c2)c1 [Compound 10] | 8.32e-08 M | 1.29e-08 M |  | 6.03 | 1.55e-08 M |  |  |  |  |  |  |  | 8.13e-08 M |
| COc1cc(OC)cc(N(CC#Cc2ncccc2OC)c2ccc3ncc(-c4cnn(C)c4)cc3c2)c1 [Compound 17] | 2.75e-07 M | 1.2e-07 M | > 1e-06 M | 7.35 | 5.89e-08 M | 8.32e-08 M |  | > 10000 nM | > 10000 nM |  |  |  |  |
| COc1cc(OC)cc(N(CCCN2CCCO2)c2ccc3ncc(-c4cnn(C)c4)cc3c2)c1 [Compound 19] | 6.03e-08 M |  |  | 6.32 |  |  | 1.15e-08 M |  |  |  |  | 5.62e-09 M | 1e-07 M |
| COc1cc(OC)cc(N(CCNC(C)C)c2ccc3ncc(-c4cn[nH]c4)cc3c2)c1 [Compound 21] | 5.37e-09 M | 2.57e-09 M | 1.02e-07 M | 7.55 | 3.39e-09 M |  |  | > 10000 nM | > 10000 nM |  |  |  |  |
| COc1cc(OC)cc(N(CCNC(C)C)c2ccc3ncc(-c4cnn(C5CCCCO5)c4)cc3c2)c1 (centres unmarked) [Compound 22] | 4.37e-09 M | 3.89e-09 M | 4.37e-08 M | 7.85 | 2.4e-09 M | 1.2e-09 M |  | > 10000 nM | > 10000 nM |  |  |  |  |
| COc1cc(OC)c(F)c(N(CC#Cc2ncccc2OC)c2ccc3ncc(-c4cnn(C)c4)cc3c2)c1 [Compound 26] | 1.26e-08 M | 1.05e-08 M | 4.27e-07 M | 7.95 |  | 4.79e-09 M |  |  |  |  |  | 4.9e-09 M |  |
| CNCCN(c1ccc2ncc(-c3cnn(C)c3)cc2c1)c1c(F)c(OC)cc(OC)c1F [Compound 43] | 2.63e-09 M | 2.45e-09 M | 1.48e-08 M | 8.68 | 2.4e-09 M | 1.07e-09 M |  |  |  |  |  |  |  |
| COc1cc(OC)cc(N(Cc2ncc[nH]2)c2ccc3ncc(-c4ccncc4)cc3c2)c1 [Compound 57] | 4.47e-09 M | 2.29e-09 M | 4.57e-07 M | 6.75 | 1.05e-09 M | 2.82e-09 M |  |  |  |  |  |  |  |
| COc1cc(OC)cc(N(Cc2nccn2S(=O)(=O)N(C)C)c2ccc3ncc(-c4ccncc4)cc3c2)c1 [Compound 58] | 1.86e-07 M | 1.29e-08 M | 7.24e-07 M | ~5.86 | 2.75e-08 M |  |  | > 10000 nM | > 10000 nM |  |  |  |  |

The next lines start with results.

| IC50 (FGFR4 (h)) | IC50 (FGFR2 (h); [4]) | IC50 (KDR (h); [5]) | BAF3-FGFR1 (MIN IL3 pIC50) [3] | IC50 (FGFR3 (h); [6]) | IC50 (FGFR1 (h)) | IC50 (FGFR2 (h); FGFR 2 pIC50, 0.4 μM ATP) | SMILES | IC50 [1] | IC50 [2] | BAF3-FGFR3 (PLUS IL3 Alamar Blue pIC50) [1] | BAF3-KDR (PLUS IL3 Alamar Blue pIC50) [2] | IC50 (FGFR3 (h); hFGFR 3 pIC50, 25 μM ATP) | IC50 (KDR (h); VEGFR KDR pIC50, 3 μM ATP) |
| --- | --- | --- | --- | --- | --- | --- | --- | --- | --- | --- | --- | --- | --- |
| 6.03e-08 M | 1.95e-08 M | 5.89e-07 M | 6.57 | 5.89e-09 M |  |  | COc1cc(OC)cc(N(CC(O)C(F)(F)F)c2ccc3ncc(-c4cnn(C)c4)cc3c2)c1 (single isomer, unassigned) [Compound 25] |  |  | <5 | <5 |  |  |
| 1.45e-07 M | 7.76e-09 M | 1.66e-07 M | 6.14 | 1.1e-08 M | 5.62e-09 M |  | COc1cc(OC)cc(N(Cc2nccn2S(=O)(=O)N(C)C)c2ccc3ncc(-c4cnn(C)c4)cc3c2)c1 [Compound 9] | > 10000 nM | > 10000 nM |  |  |  |  |
| 2e-08 M | 2.29e-09 M | 4.47e-08 M | 6.67 | 3.39e-09 M | 3.63e-09 M |  | COc1cc(OC)cc(N(CCCN)c2ccc3ncc(-c4cnn(C)c4)cc3c2)c1 [Compound 11] | > 10000 nM | > 10000 nM |  |  |  |  |
| 3.13e-09 M | 5.62e-09 M | 3.76e-08 M | 8.715 | 2.37e-09 M | 1.64e-09 M |  | COc1cccnc1C#CCN(c1ccc2ncc(-c3cnn(C)c3)cc2c1)c1c(F)c(OC)cc(OC)c1F [Compound 27] |  |  |  |  |  |  |
| 2.19e-09 M | 3.89e-09 M | 1.17e-08 M | ~8.03 | 1.32e-09 M | 1.17e-09 M |  | COc1cc(OC)cc(N(CCCN2CCCC2CNS(=O)(=O)C(F)(F)F)c2ccc3ncc(-c4cnn(C)c4)cc3c2)c1 (centres unmarked) [Compound 47] | > 10000 nM | > 10000 nM |  |  |  |  |
| 3.16e-08 M | 1.45e-08 M | 2.88e-07 M | 7.24 | 7.94e-09 M |  |  | COc1cc(OC)cc(N(CC#Cc2nccn2C)c2ccc3ncc(-c4cnn(C)c4)cc3c2)c1 [Compound 48] | > 10000 nM | > 10000 nM |  |  |  |  |
| 2.51e-07 M | 1.95e-08 M | > 1e-06 M | 5.37 | 3.16e-08 M |  |  | COc1cc(OC)cc(N(Cc2nccn2S(=O)(=O)N(C)C)c2ccc3ncc(-c4cccnc4)cc3c2)c1 [Compound 60] |  |  |  |  |  |  |
